“Also recorded” adds a separate entry of the source.

The subject of the assay is rat cerebral cortical cultures. Briefly: Neurite outgrowth assay (MAP2-FITC immunofluorescence), cortical cultures. It is filed as cell-based. An excerpt: Dissociated hippocampal and cortical cell cultures were established from embryonic day 18 rat fetuses as previously described (Mattson et al., 1994). Briefly, fetuses were removed via cesarean section from pregnant moms (Sprague-Dawley) anesthetized with halothane according to the AVMA Panel on Euthanasia. Pups were decapitated and the brains were removed and placed in HEPES-buffered Hank's Balanced Salt solution (HBSS; Gibco). The hippocampi and cortices were dissected out and pooled according to tissue-type. Tissue was trypsinized for 15 min (1 mg/ml trypsin-HBSS; Worthington), rinsed with fresh HBSS, incubated in trypsin inhibitor (1 mg/ml; Sigma) for 5 min, rinsed again with fresh HBSS and then triturated in 1 ml fresh HBSS with a fire-polished glass pipette. Dissociated cells were seeded at 30,000 cells/well onto poly-D-lysine coated 96-well plates (Collaborative BioScience). Each well contained 100 μl of Eagle's Minimal Essential Media (MEM; Gibco) supplemented with 26 mM NaHCO3 (Sigma), 56 mM glucose (Sigma), 15 mM KCl (Sigma), 1 mM sodium pyruvate (Sigma), 1.1 mM L-glutamine (Sigma), 10% (v/v) heat-inactivated fetal bovine serum (Hyclone), and 0.001% gentamicin sulfate (Sigma) (pH 7.4). Cells were allowed to attach for 24 h in a humidified 37° C. 5% CO2 incubator before experimental treatment. The culture media was aspirated and exchanged with fresh media every three days.
Twenty-four hours after plating, cultures were treated with vehicle (PBS+0.1% BSA), 100 ng of various growth factors (brain derived neurotrophic factor (BDNF; Promega), glial-derived neurotrophic factor (GDNF; Promega), nerve growth factor (NGF; Boehringer Mannheim), basic fibroblast growth factor (bFGF; Boehringer Mannheim), insulin-like growth factor-1 (IGF-1; Boehringer Mannheim), neurotrophin-3 (NT3; Calbiochem), neurotrophin-4 (NT4; Calbiochem), ciliary neurotrophic factor (CNTF; Calbiochem), epidermal growth factor (EGF; Calbiochem), vascular endothelial growth factor (VEGF; Calbiochem)), or rhEPO (prepared same as above; 10 fM-10 nM)). Each treatment condition was run in quadruplicate or octuplicate. On the third day in culture, the media was aspirated off and replaced with fresh media and test compound. At one week in culture, the cells were fixed with 10% phosphate-buffered formalin for 15 min, then rinsed with DPBS (Sigma) and placed in blocking serum for 30 min (horse serum; 1:50 dilution in DPBS; Vector Labs). Cultures were rinsed again with DPBS and then incubated in primary antibody for 2 hr (microtubule-associated protein-2 (MAP-2) is a selective marker for dendritic processes; anti-mouse monoclonal (Chemicon); 1:1000 dilution of MAP-2 in antibody diluent (Zymed)). Negative control wells were incubated in antibody diluent alone. Background signal was determined by blank wells (cell-free) incubated with or without antibody. Cultures were rinsed again with DPBS and then placed in fluorescein for 1 hr (FITC; anti-mouse IgG; rat adsorbed; 1:50 dilution in DPBS; Vector Labs). Cultures were rinsed a final time with DPBS and then the plates were read on a Cytofluor 4000 fluorescence plate reader. Neurite outgrowth was expressed as percent change from control (vehicle; mean fluorescence±SD).
Dissociated hippocampal and cortical cell cultures were established from embryonic day 18 rat fetuses as previously described (Mattson et al., 1994). Briefly, fetuses were removed via cesarean section from pregnant moms (Sprague-Dawley) anesthetized with halothane according to the AVMA Panel on Euthanasia. Pups were decapitated and the brains were removed and placed in HEPES-buffered Hank's Balanced Salt solution (HBSS; Gibco). The hippocampi and cortices were dissected out and pooled according to tissue-type. […]

On to “EPO: purified, recombinant human EPO (rhEPO), formulated and distributed under the trademarks EPREX, ERYPO or PROCRIT”, for which the “neurite outgrowth (in words)” value is “significant increase in neurite outgrowth; also recorded: promotes neurite outgrowth”. Besides, the “concentration of maximal neurite outgrowth promoting activity” value (concentration dependent) is reported as “maximal activity observed at pM levels”. Moreover, the “ability to increase neurite outgrowth compared to known growth factors” value (growth factors 100 ng) is “greater than or equal to that of known growth factors; also recorded: superior in inducing neurite outgrowth relative to the majority of known growth factors”. Further, the “neurite outgrowth response over control” value (rhEPO 10 fM-10 nM, one week in culture) is recorded as 15–29%.

The values are drawn from patent US7259146B2, “Neuroprotective peptides” (Ortho-McNeil Pharmaceutical, Inc., priority 2000, dated 2007).
